Laboratory results taken from patent US20070088033A1, “Diaryl Substituted Pyridinones” (priority 2002, published 2007).
Where “and” joins values, the source holds several entries; their conditions need not be identical. Equal values may be shown once.

Molecular target: T1, human p38 kinase alpha (Homo sapiens, UniProt Q16539)
T1 construct: The coding region of the human p38 cDNA was obtained by PCR-amplification from RNA isolated from the human monocyte cell line THP.1; GST (N); made in house; host or cells: E. coli DH10B
T1 sequence (Q16539 whole entry): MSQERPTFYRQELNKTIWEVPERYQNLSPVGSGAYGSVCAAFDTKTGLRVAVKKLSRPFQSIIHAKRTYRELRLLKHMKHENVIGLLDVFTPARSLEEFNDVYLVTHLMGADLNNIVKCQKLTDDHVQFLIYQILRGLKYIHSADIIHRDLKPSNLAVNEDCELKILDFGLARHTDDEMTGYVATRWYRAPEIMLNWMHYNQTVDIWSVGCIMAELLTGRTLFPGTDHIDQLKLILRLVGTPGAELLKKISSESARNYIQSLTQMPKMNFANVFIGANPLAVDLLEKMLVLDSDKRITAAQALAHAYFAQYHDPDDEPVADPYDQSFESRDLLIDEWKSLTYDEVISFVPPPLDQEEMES
Assay: p38 kinase in vitro assay
Type: biochemical
Settings: Table I; average of n trials, n=1 if not reported; read-out: p38 Alpha IC50
Protocol: The ability of compounds to inhibit human p38 kinase alpha was evaluated using two in vitro assay methods. In the first method, activated human p38 kinase alpha phosphorylates a biotinylated substrate, PHAS-I (phosphorylated heat and acid stable protein-insulin inducible), in the presence of gamma ^32p-ATP (^32P-ATP). PHAS-I was biotinylated prior to the assay and provides a means of capturing the substrate, which is phosphorylated during the assay. p38 Kinase was activated by MKK6. Compounds were tested in 10 fold serial dilutions over the range of 100 μM to 0,001 μM using 1% DMSO. Each concentration of inhibitor was tested in triplicate.
All reactions were carried out in 96 well polypropylene plates. Each reaction well contained 25 mM HEPES pH 7.5, 10 mM magnesium acetate and 50 μM unlabeled ATP. […] Activated human p38 kinase alpha was used at 1 μg per 50 μl reaction volume representing a final concentration of 0.3 μM. Gamma ^32P-ATP was used to follow the phosphorylation of PHAS-I. ^32P-ATP has a specific activity of 3000 Ci/mmol and was used at 1.2 μCi per 50 μl reaction volume. The reaction proceeded either for one hour or overnight at 30° C.
Following incubation, 20 μl of reaction mixture was transferred to a high capacity streptavidin coated filter plate (SAM-streptavidin-matrix, Promega) prewetted with phosphate buffered saline, The transferred reaction mix was allowed to contact the streptavidin membrane of the Promega plate for 1-2 minutes. […] Filter plates were air-dried and 20 μl of scintillant was added. The plates were sealed and counted.
A second assay format was also employed that is based on p38 kinase alpha induced phosphorylation of EGFRP (epidermal growth factor receptor peptide, a 21 mer) in the presence ^33P-ATP. Compounds were tested in 10 fold serial dilutions over the range of 100 μM to 0.001 μM in 1% DMSO. Each concentration of inhibitor was tested in triplicate. Compounds were evaluated in 50 μl reaction volumes in the presence of 25 mM Hepes pH 7.5, 10 mM magnesium acetate, 4% glycerol, 0.4% bovine serum albumin, 0.4 mM DTT, 50 μM unlabeled ATP, 25 μg EGFRP (200 μM), and 0.05 μCi ^33p-ATP. Reactions were initiated by addition of 0.09 μg of activated, purified human GST-p38 kinase alpha. Activation was carried out using GST-MKK6 (5:1,p38:MKK6) for one hour at 30° C. in the presence of 50 μM ATP. Following incubation for 60 minutes at room temperature, the reaction was stopped by addition of 150 μl of AG 1×8 resin in 900 mM sodium formate buffer, pH 3.0 (1 volume resin to 2 volumes buffer). The mixture was mixed three times with pipetting and the resin was allowed to settle. A total of 50 μl of clarified solution head volume was transferred from the reaction wells to Microlite-2 plates. 150 μl of Microscint 40 was then added to each well of the Microlite plate, and the plate was sealed, mixed, and counted.
`Cc1cc(OCc2ccc(F)cc2F)c(Br)c(=O)n1Cc1cccnc1` [F] gave an IC50 of 132 nM.
Compound `Cc1ccc(Cn2ccc(OCc3ccccc3)c(Br)c2=O)cc1` [Q] has an IC50 of 365 nM.
With `CSc1ccc(Cn2ccc(OCc3ccccc3)c(Br)c2=O)cc1` [W] the IC50 was 450 nM.
Compound `O=c1c(Cl)c(OCc2ccccc2)ccn1Cc1ccccc1` [X] has an IC50 of 450 nM.
For `Cc1cccc(C)c1-n1c(C)cc(OCc2ccc(F)cc2F)c(Br)c1=O` [C], the IC50 was 64.6 nM.
For `Cc1cc(OCc2ccc(F)cc2F)c(Br)c(=O)n1Cc1ccncc1` [I], the IC50 was 210 nM.
Compound `O=c1c(Br)c(OCc2ccccc2)ccn1Cc1cccc(F)c1` [J] has an IC50 of 700 nM.
With `O=c1c(Br)c(OCc2ccccc2)ccn1Cc1ccccc1F` [U] the IC50 was 427 nM.

Same assay, conditions: Table II; several values in a cell = repeat determinations; read-out: p38A
With `O=c1cc(OCc2ccccc2)ccn1Cc1ccccc1` [EEEE] the IC50 was 26400 nM and 59200 nM and 49000 nM.
Compound `O=c1cc(OCc2ccccc2Cl)ccn1Cc1ccccc1` [WWW] has an IC50 of 81800 nM.
For `O=c1c(Br)c(OCc2ccccc2)ccn1Cc1ccc(C(F)(F)F)cc1` [MMM], the IC50 was 1530 nM.

Same assay, conditions: Table III; n = number of times assayed, n=1 if not reported; read-out: p38 Alpha IC50
For `Cc1cc(OCc2c(F)cccc2F)c(Br)c(=O)n1-c1c(Cl)cccc1Cl` [YYYY], the IC50 was 339 nM.
Compound `Cc1cc(OCc2ccc(F)cc2F)c(Br)c(=O)n1Cc1cccnc1` [RRRR] has an IC50 of 132 nM.
`O=c1c(Cl)c(OCc2ccc(F)cc2)ccn1Cc1ccc(F)cc1` [FFFFF] showed an IC50 of 1080 nM.
With `O=c1c(Br)c(OCc2ccc(F)cc2F)ccn1Cc1cccnc1` [XXXX] the IC50 was 282 nM.

Test system: not given
Assay: not given
Settings: not given
In the case of `O=c1c(Br)c(OCc2ccccc2)ccn1Cc1cccc(C(F)(F)F)c1` [Example 31, 4-(benzyloxy)-3-bromo-1-[3-(trifluoromethyl)benzyl]pyridin-2(1H)-one], the melting point is reported as 181.5 to 181.6 °C.
For `O=C(O)c1ccc(Cn2ccc(OCc3ccccc3)c(Br)c2=O)cc1` [Example 15, 4-{[4-(benzyloxy)-3-bromo-2-oxopyridin-1(2H)-yl]methyl}benzoic acid], the melting point was 250.8 to 255.7 °C.
With `O=c1c(Br)c(OCc2ccccc2)ccn1Cc1ccc(OCc2ccccc2)cc1` [Example 12, 4-(benzyloxy)-1-[4-(benzyloxy)benzyl]-3-bromopyridin-2(1H)-one] the melting point was 137.6 to 144.3 °C.
In the case of `Cc1ccc(Cn2ccc(OCc3ccccc3)cc2=O)cc1` [Example 1, 4-(benzyloxy)-1-(4-methylbenzyl)pyridin-2(1H)-one], the melting point is reported as 142.8 to 143.3 °C.
Compound `O=c1c(Br)c(O)ccn1Cc1ccc(O)cc1` [Example 21, 3-bromo-4-hydroxy-1-(4-hydroxybenzyl)pyridin-2(1H)-one] has a melting point of 102 to 108 °C.
With `O=c1c(Br)c(SCc2ccccc2)ccn1Cc1ccccc1` [Example 46] the melting point was 180.6 to 182.1 °C.
Work on `O=c1c(Br)c(OCc2ccccc2C(F)(F)F)ccn1Cc1ccccc1` [Example 47, 1-Benzyl-3-bromo-4-{[2-(trifluoromethyl)benzyl]oxy}pyridin-2(1H)-one] yielded a melting point of 133.2 to 133.5 °C.
Compound `Cc1ccc(COc2ccn(Cc3ccccc3)c(=O)c2Br)cc1` [Example 44, 1-Benzyl-3-bromo-4-[(4-methylbenzyl)oxy]pyridin-2(1H)-one] has a melting point of 149 to 149.7 °C.
For `O=c1c(Br)c(OCc2c(Cl)cccc2Cl)ccn1Cc1ccccc1` [Example 461, 1-Benzyl-3-bromo-4-[2,6-(dichlorobenzyl)oxy]pyridin-2(1H)-one], the melting point was 156.3 to 157.9 °C.
`O=c1c(Br)c(OCc2ccccc2)ccn1CCc1ccsc1` [Example 29, 4-(benzyloxy)-3-bromo-1-(2-thien-3-ylethyl)pyridin-2(1H)-one] gave a melting point of 134 to 134.3 °C.
Work on `Cc1ccc(Cn2ccc(OCc3ccccc3)c(Br)c2=O)cc1` [Example 2, 4-(benzyloxy)-3-bromo-1-(4-methylbenzyl)pyridin-2(1H)-one] yielded a melting point of 150.4 to 151.2 °C.
In the case of `O=c1c(Br)c(OCc2ccccc2Cl)ccn1Cc1ccccc1` [Example 43, 1-Benzyl-3-bromo-4-[(2-chlorobenzyl)oxy]pyridin-2(1H)-one], the melting point is reported as 143.3 to 145.5 °C.
`Cl.O=c1c(Br)c(OCc2ccccc2)ccn1CC1CCCNC1` (stereo not drawn) gave a melting point of 138.1 to 139.2 °C.
For `O=c1cc(OCc2cccc(Cl)c2)ccn1Cc1ccccc1` [Example 45, 1-Benzyl-4-[(3-chlorobenzyl)oxy]pyridin-2(1H)-one], the melting point was 95.5 to 95.7 °C.
With `O=c1cc(OCc2c(Cl)cccc2Cl)ccn1Cc1ccccc1` [Example 40, 1-Benzyl-4-[2,6-(dichlorobenzyl)oxy]pyridin-2(1H)-one] the melting point was 151.6 to 152 °C.
Compound `O=c1cc(OCc2ccccc2Cl)ccn1Cc1ccccc1` [Example 42, 1-Benzyl-4-[(2-chlorobenzyl)oxy]pyridin-2(1H)-one] has a melting point of 124.6 to 125 °C.
`CCn1ccc(OCc2ccccc2)c(Br)c1=O` [Example 20, 4-(benzyloxy)-3-bromo-1-ethylpyridin-2(1H)-one] gave a melting point of 61.3 to 64.8 °C.
In the case of `O=c1c(Br)c(OCc2ccccc2)ccn1CCc1cccs1` [Example 30, 4-(benzyloxy)-3-bromo-1-(2-thien-2-ylethyl)pyridin-2(1H)-one], the melting point is reported as 128 to 129.5 °C.
With `Cl.O=c1c(Br)c(OCc2ccccc2)ccn1CC1CCNCC1` the melting point was 207.9 °C.
`NC(=NO)c1ccc(Cn2ccc(OCc3ccccc3)c(Br)c2=O)cc1` [Example 24, 4-{[4-(benzyloxy)-3-bromo-2-oxopyridin-1(2H)-yl]methyl}-N′-hydroxybenzenecarboximidamide] showed a melting point of 210.2 to 212.2 °C.
In the case of `Cn1ccc(OCc2ccccc2)c(Br)c1=O` [Example 23, 4-(benzyloxy)-3-bromo-1-methylpyridin-2(1H)-one], the melting point is reported as 61.3 to 64.8 °C.
